Columns and labels:
[1] = Growth inhibition of human HCT15 cells assessed as cell growth at 10 uM incubated for 48 hrs by sulforhodamine B assay relative to control; type: functional; conditions: HCT-15, 48 h, read-out: Activity
[2] = Growth inhibition of human HCT116 cells assessed as cell growth at 10 uM incubated for 48 hrs by sulforhodamine B assay relative to control; type: functional; conditions: HCT-116, 48 h, read-out: Activity
SK-MEL-28 = test: Growth inhibition of human SK-MEL-28 cells assessed as cell growth at 10 uM incubated for 48 hrs by sulforhodamine B assay relative to control; type: functional; conditions: SK-MEL-28, 48 h, read-out: Activity
[3] = Growth inhibition of human TK10 cells assessed as cell growth at 10 uM incubated for 48 hrs by sulforhodamine B assay relative to control; type: functional; conditions: TK-10, 48 h, read-out: Activity
[4] = Growth inhibition of human SNB19 cells assessed as cell growth at 10 uM incubated for 48 hrs by sulforhodamine B assay relative to control; type: functional; conditions: SNB-19, 48 h, read-out: Activity
Malme-3M = test: Growth inhibition of human MALME-3M cells assessed as cell growth at 10 uM incubated for 48 hrs by sulforhodamine B assay relative to control; type: functional; conditions: read-out: Activity
[5] = Growth inhibition of human MOLT4 cells assessed as cell growth at 10 uM incubated for 48 hrs by sulforhodamine B assay relative to control; type: functional; conditions: MOLT-4, 48 h, read-out: Activity
MDA-MB-468 = test: Growth inhibition of human MDA-MB-468 cells assessed as cell growth at 10 uM incubated for 48 hrs by sulforhodamine B assay relative to control; type: functional; conditions: MDA-MB-468, 48 h, read-out: Activity
SK-MEL-5 = test: Growth inhibition of human SK-MEL-5 cells assessed as cell growth at 10 uM incubated for 48 hrs by sulforhodamine B assay relative to control; type: functional; conditions: SK-MEL-5, 48 h, read-out: Activity
NCI-H460 = test: Growth inhibition of human NCI-H460 cells assessed as cell growth at 10 uM incubated for 48 hrs by sulforhodamine B assay relative to control; type: functional; conditions: NCI-H460, 48 h, read-out: Activity
[6] = Growth inhibition of human PC3 cells assessed as cell growth at 10 uM incubated for 48 hrs by sulforhodamine B assay relative to control; type: functional; conditions: PC-3, 48 h, read-out: Activity
MCF7 = test: Cytotoxicity against human MCF7 cells assessed as reduction in cell viability after 72 hrs by MTT assay; type: functional, cell-based; conditions: MCF7, 72 h
M14 = test: Growth inhibition of human M14 cells assessed as cell growth at 10 uM incubated for 48 hrs by sulforhodamine B assay relative to control; type: functional; conditions: M14, 48 h, read-out: Activity
[7] = Growth inhibition of human UACC62 cells assessed as cell growth at 10 uM incubated for 48 hrs by sulforhodamine B assay relative to control; type: functional; conditions: UACC-62, 48 h, read-out: Activity
ACHN = test: Growth inhibition of human ACHN cells assessed as cell growth at 10 uM incubated for 48 hrs by sulforhodamine B assay relative to control; type: functional; conditions: read-out: Activity
K562 = test: Growth inhibition of human K562 cells assessed as cell growth at 10 uM incubated for 48 hrs by sulforhodamine B assay relative to control; type: functional; conditions: K562, 48 h, read-out: Activity
[8] = Growth inhibition of human Caki1 cells assessed as cell growth at 10 uM incubated for 48 hrs by sulforhodamine B assay relative to control; type: functional; conditions: CAKI-1, 48 h, read-out: Activity
[9] = Growth inhibition of human RPMI8226 cells assessed as cell growth at 10 uM incubated for 48 hrs by sulforhodamine B assay relative to control; type: functional; conditions: RPMI-8226, 48 h, read-out: Activity
A549 = test: Growth inhibition of human A549/ATCC cells assessed as cell growth at 10 uM incubated for 48 hrs by sulforhodamine B assay relative to control; type: functional; conditions: A549, 48 h, read-out: Activity
[10] = Growth inhibition of human HCC2998 cells assessed as cell growth at 10 uM incubated for 48 hrs by sulforhodamine B assay relative to control; type: functional; conditions: HCC 2998, 48 h, read-out: Activity
[11] = Cytotoxicity against human GM00637 cells assessed as reduction in cell viability after 72 hrs by MTT assay; type: cell-based; conditions: GM00637, 72 h
SK-MEL-2 = test: Growth inhibition of human SK-MEL-2 cells assessed as cell growth at 10 uM incubated for 48 hrs by sulforhodamine B assay relative to control; type: functional; conditions: SK-MEL-2, 48 h, read-out: Activity
[12] = Growth inhibition of human SW620 cells assessed as cell growth at 10 uM incubated for 48 hrs by sulforhodamine B assay relative to control; type: functional; conditions: SW-620, 48 h, read-out: Activity
[13] = Growth inhibition of human IGROV1 cells assessed as cell growth at 10 uM incubated for 48 hrs by sulforhodamine B assay relative to control; type: functional; conditions: IGROV-1, 48 h, read-out: Activity
[14] = Growth inhibition of human UACC257 cells assessed as cell growth at 10 uM incubated for 48 hrs by sulforhodamine B assay relative to control; type: functional; conditions: UACC-257, 48 h, read-out: Activity
SN12C = test: Growth inhibition of human SN12C cells assessed as cell growth at 10 uM incubated for 48 hrs by sulforhodamine B assay relative to control; type: functional; conditions: read-out: Activity
[15] = Growth inhibition of human SF295 cells assessed as cell growth at 10 uM incubated for 48 hrs by sulforhodamine B assay relative to control; type: functional; conditions: SF-295, 48 h, read-out: Activity
[16] = Growth inhibition of human UO31 cells assessed as cell growth at 10 uM incubated for 48 hrs by sulforhodamine B assay relative to control; type: functional; conditions: UO-31, 48 h, read-out: Activity
HT-29 = test: Growth inhibition of human HT-29 cells assessed as cell growth at 10 uM incubated for 48 hrs by sulforhodamine B assay relative to control; type: functional; conditions: HT-29, 48 h, read-out: Activity
[17] = Growth inhibition of human OVCAR5 cells assessed as cell growth at 10 uM incubated for 48 hrs by sulforhodamine B assay relative to control; type: functional; conditions: OVCAR-5, 48 h, read-out: Activity
MDA-MB-435 = test: Growth inhibition of human MDA-MB-435 cells incubated for 48 hrs by sulforhodamine B assay; type: functional; conditions: MDA-MB-435, 48 h
[18] = Growth inhibition of human COLO205 cells incubated for 48 hrs by sulforhodamine B assay; type: functional; conditions: COLO 205, 48 h
[19] = Selectivity ratio of IC50 for human GM00637 cells to IC50 for human DU145 cells; type: ADME, cell-based; conditions: GM00637 cells versus DU145 cells, read-out: Ratio IC50
[20] = Growth inhibition of human UACC257 cells incubated for 48 hrs by sulforhodamine B assay; type: functional; conditions: UACC-257, 48 h
[21] = read-out: pLC50 (the source's name) (converted)

## O=c1ccc2nc(-c3ccccc3)nn(-c3ccccc3)c-2c1
[1]
  growth at 10 µM: -75.9%
[2]
  growth at 10 µM: -90.7%
SK-MEL-28
  growth at 10 µM: 26.4%
[3]
  growth at 10 µM: -95.9%
[4]
  growth at 10 µM: 76%
Malme-3M
  growth at 10 µM: -92.5%
[5]
  growth at 10 µM: -37.6%
MDA-MB-468
  growth at 10 µM: -61.6%
SK-MEL-5
  growth at 10 µM: 19.5%
NCI-H460
  growth at 10 µM: 61.5%
[6]
  growth at 10 µM: 43.5%
MCF7
  IC50: 0.81 µM
M14
  growth at 10 µM: 51.2%
[7]
  growth at 10 µM: 30.1%
ACHN
  growth at 10 µM: -96%
K562
  growth at 10 µM: -39%
[8]
  growth at 10 µM: -90.9%
[9]
  growth at 10 µM: -6.53%
A549
  growth at 10 µM: 73.6%
[10]
  growth at 10 µM: 100%
[11]
  IC50: 0.23 µM
SK-MEL-2
  growth at 10 µM: 44.6%
[12]
  growth at 10 µM: -60.5%
[13]
  growth at 10 µM: 2.56%
[14]
  growth at 10 µM: -97.3%
SN12C
  growth at 10 µM: 40.2%
[15]
  growth at 10 µM: 23.9%
[16]
  growth at 10 µM: -97.5%
HT-29
  growth at 10 µM: -53.5%
[17]
  growth at 10 µM: 102%

## O=c1ccc2nc(C(F)(F)F)nn(-c3ccccc3)c-2c1
[1]
  growth at 10 µM: -79.7%
[2]
  growth at 10 µM: 35.2%
SK-MEL-28
  growth at 10 µM: 35.7%
[3]
  growth at 10 µM: -95%
[4]
  growth at 10 µM: 93.5%
Malme-3M
  growth at 10 µM: -41.7%
MDA-MB-435
  GI50: 4.57 µM
MDA-MB-435; [21]
  CC50: 40.7 µM
MDA-MB-435; read-out: pTGI (converted)
  TGI: 16.6 µM
[5]
  growth at 10 µM: -20.5%
MDA-MB-468
  growth at 10 µM: -73.5%
SK-MEL-5
  growth at 10 µM: 32.7%
NCI-H460
  growth at 10 µM: 97.3%
[6]
  growth at 10 µM: 84.5%
MCF7
  IC50: 0.6 µM
M14
  growth at 10 µM: 62.1%
[7]
  growth at 10 µM: 66.4%
ACHN
  growth at 10 µM: -89%
K562
  growth at 10 µM: -35.1%
[8]
  growth at 10 µM: 56%
[9]
  growth at 10 µM: 45.6%
A549
  growth at 10 µM: 93%
[10]
  growth at 10 µM: 102%
[11]
  IC50: 1.61 µM
SK-MEL-2
  growth at 10 µM: 78.3%
[12]
  growth at 10 µM: -63.3%
[13]
  growth at 10 µM: 71.7%
[14]
  growth at 10 µM: 35.6%
[18]
  GI50: 2.29 µM
[18]; [21]
  CC50: > 100 µM
[18]; read-out: pTGI (converted)
  TGI: 5.75 µM
[19]
  selectivity ratio: 2
SN12C
  growth at 10 µM: 67.9%
[15]
  growth at 10 µM: 91.9%
[16]
  growth at 10 µM: 24%
[20]
  GI50: 1.91 µM
[20]; [21]
  CC50: 8.51 µM
[20]; read-out: pTGI (converted)
  TGI: 4.07 µM
HT-29
  growth at 10 µM: -64.3%
[17]
  growth at 10 µM: 102%
